Experimental data as given in patent US7459481B2, “Stimulation of CPT-1 as a means to reduce weight” (The Johns Hopkins University School of Medicine Licensing …, priority 2002, dated 2008).

Legend:
[1] = Respiratory exchange ratio by indirect calorimetry (Oxymax) in mice; format: in vivo
Description: In keeping with the C75 effect on both human and murine CPT-1 and fatty acid metabolism, C75 induces a profound and rapid stimulation of fatty acid oxidation in vivo. Mice were maintained in the Oxymax calorimeter (Oxymax Equal Flow System®, Columbus Instruments, Columbus, Ohio). Oxygen consumption and CO2 production was measured in up to four mice simultaneously using the indirect calorimeter. Measurements were recorded every 15 minutes over the entire course of the experiments. The respiratory exchange ratio (RER) was calculated by the Oxymax® software version 5.9. RER is defined as the ratio of CO2 to O2 at any given time irrespective if equilibrium was reached. Mice were maintained on water and mouse chow ad libitum. In the control mice (FIG. 8A), note the diurnal variation of RER indicating feeding and resting cycles of the animals. An RER of 1 is consistent with oxidation of carbohydrates while 0.7 indicates oxidation of fatty acids. […] C75 treatment at 30 mg/kg disrupts the diurnal pattern of the control mice, showing a rapid drop in RER to complete oxidation of fatty acids within about 2 hours. […] Importantly, the rate of decline of RER was similar to that observed for animals deprived of food (data not shown).

MCF-7 cells = experiment: Fatty acid oxidation ([1-14C]palmitate to 14CO2) in MCF-7 cells; format: cell-based, human
Description: (§1) Human breast cancer cell line MCF-7 was obtained from the American Type Culture Collection. 1×10^6 MCF-7 cells were plated in T-25 flasks in triplicate and incubated overnight at 37° C. Drugs were then added as indicated diluted from 5 mg/ml stock in DMSO. After 2 hours, medium with drugs was removed and cells were preincubated for 30 min. with 1.5 ml of the following buffer: 114 mM NaCl, 4.7 mM KCl, 1.2 mM KH2PO4, 1.2 mM MgSO4, glucose 11 mM. After preincubation, 200 μl of assay buffer was added containing: 114 mM NaCl, 4.7 mM KCl, 1.2 mM KH2PO4, 1.2 mM MgSO4, glucose 11 mM, 2.5 mM palmitate (containing with 10 μCi of [1-^14C]palmitate) bound to albumin, 0.8 mM L-carnitine, and cells were incubated at 37° C. for 2 h. Following the incubation, 400 μl of benzethonium hydrochloride was added to the center well to collect released ^14CO2. Immediately, the reaction was stopped by adding 500 μl of 7% perchloric acid to the cells. The flasks with wells were then incubated for 2 h at 37° C. after which the benzothonium hydrochloride was removed and counted for ^14C. Blanks were prepared by adding 500 μl of 7% perchloric acid to the cells prior to the incubation with the assay buffer for 2 h.
FAS activity was measured by monitoring the malonyl-CoA dependent oxidation of NADPH spectrophotometrically at OD340 in 96-well plates, as described in International Patent Publication WO 2004/005277. The IC50 for the compounds against FAS was determined by plotting the change in OD340 against time for each inhibitor concentration tested and determining the rate of change by linear regression. The concentration of a particular compound yielding 50% inhibition of the rate for FAS in the absence of the compound is the IC50. Stimulation of CPT-1 activity was measured as described in Example 2, except the cells were preincubated with the compound for 2 hours at the concentrations indicated in the table. Stimulation of Fatty acid oxidation was determined as described in Example 1 for cells preincubated with the compounds at the concentrations indicated in the table.

3T3-L1 adipocytes [2] = experiment: Total cellular ATP in differentiated 3T3-L1 adipocytes; format: cell-based, mouse; settings: 20 μg/ml or greater, 2 hours, FIG. 7
Description: 1×10^5 MCF-7 cells were plated in 96 well plates. Cells were treated with C75 or vehicle. After 2 hours, ATP was measured using a luciferase assay using the ATP Bioluminescence Kit CLS II (Roche) following the manufacturer's protocol. Plates were read by a Perkin Elmer Wallac Victor^2 1420 luminometer. […] Similar results were obtained after 1 hr incubation with C75. Thus, cellular energy production increased as a result of C75 increasing fatty acid oxidation.
To expand the study of effects of C75 on fatty acid metabolism beyond cancer cell lines to normal adipocytes, differentiated (non-transformed) mouse NIH 3T3-L1 adipocytes were used in assays similar to those performed with the MCF-7 cells. 3T3-L1 cells were obtained from the American Type Culture Collection, and cells were cultured in DMEM with high glucose (4.5 g/l ) (Gibco 12100-046) with 10% fetal calf serum and Biotin (Sigma B-4639) 0.008 g/L. Differentiation was initiated three days after the cells were confluent, when the standard culture medium was replaced with differentiation medium. […] The differentiated cells were ready to be used for experiments in 7-10 days.
(§2) C75 increased CPT-1 activity and fatty acid metabolism in the NIH 3T3-L1 cells differentiated into adipocytes. […] CPT-1 activity, fatty acid oxidation, and total cellular ATP were measured as described in Examples 2, 1, and 4. […]

3T3-L1 adipocytes [3] = experiment: Fatty acid oxidation in differentiated 3T3-L1 adipocytes; format: cell-based, mouse; settings: 20 μg/ml or greater, 2 hours, FIG. 6
Description: as §1, with “Following the incubation, 400 μl of benzethonium hydrochloride was added to the center well to collect released ^14CO2. Immediately, the reaction was stopped by adding 500 μl of 7% perchloric acid to the cells.” left out, “Blanks were prepared by adding 500 μl of 7% perchloric acid to the cells prior to the incubation with the assay buffer for 2 h.” left out
To expand the study of effects of C75 on fatty acid metabolism beyond cancer cell lines to normal adipocytes, differentiated (non-transformed) mouse NIH 3T3-L1 adipocytes were used in assays similar to those performed with the MCF-7 cells. […] The differentiated cells were ready to be used for experiments in 7-10 days.
as §2

## C=C1C(=O)OC(CCCCCCCC)C1C(=O)O (stereo not shown) [Compound C75]
[1]; 30 mg/kg
  time for RER drop to oxidation of fatty acids: ≤ 2 h
[1]; FIG. 8B
  respiratory exchange ratio (RER) after treatment: ~0.7
MCF-7 cells; 10 μg/mL
  Fatty Acid Oxidation (% Control): 400 % Control
MCF-7 cells; MCF-7, doses from 5-20 μg/ml
  effect on fatty acid oxidation: increased fatty acid oxidation
MCF-7 cells; MCF-7, treated 2 hours before measurement, FIG. 1
  increase in fatty acid oxidation compared to the control: 156%
3T3-L1 adipocytes [2]
  levels of ATP: significantly increased
3T3-L1 adipocytes [3]
  fatty acid oxidation: significantly increased
